“And” between values parts separate entries of the source, which are not always exact repeats. Identical values can stand only once.
Experiments:
cleaved Notch1 (N1ICD) = assay: In-vivo target inhibition study, cleaved N1ICD in lung by ELISA; set-up: species or system Balb/C mice; details: mouse lung
Experimental: To evaluate in vivo effect of Compound 1, Isomer 2 and. Compound 2, Isomer 2 on inhibition of Notch processing pharmacodynamics (PD), animal studies were conducted in non-tumor bearing Balb/C mice (Charles River). A total of 5 mice are used for each group. Mice are fed ad libitum on normal chow. Treatment is initiated with oral administration (gavage) of compound or vehicle (1% Na-CMC in 0.25% Tween-80) in 0.2 mL volume. At designated time points (4 or 8 hours after the dose) following treatment, animals are sacrificed by CO2 asphyxiation and cervical dislocation. Tissues (Lungs) are removed and used for PD response analysis as measured by cleaved N1ICD.
To evaluate N1ICD levels in lung, approximately 75 mg is cut from the frozen tissue and minced prior to homogenization (actual mass recorded). […] are transferred to Lysing Matrix-D™ tubes and re-suspended in ice-cold XY lysis buffer (25 mM Tris pH 7.5, 10 μg/ml Trypsin/Chymotrypsin inhibitor, 10 μg/ml Aprotinin, 60 mM Beta-glycerol phosphate, 1% Triton® X-100, 10 mM NaF, 2.5 mM pyrophosphate, 150 mM NaCl, 15 mM ethylene diamine tetra acetic acid (EDTA) pH 8.0, 5 mM ethylene glycol-bis(2-aminoethylether)-N,N,N′,N′-tetra acetic acid (EGTA) pH 8.0, 1 mM Na Vanadate, 10 μg/ml Leupeptin, 1 mM dithiothreitol, 1 μM microcystin LR, 10 μg/ml N-p-tosyl-L-phenylalanine chloromethyl ketone (TPCK), 2 mM Nα-p-tosyl-L-arginine methyl ester hydrochloride (TAME), 15 mM 4-nitrophenyl phosphate di(tris) salt (PNPP), 0.1 mM 4-(2-aminoethyl) benzenesulfonyl fluoride hydrochloride (AEBSF), 5 mM benzamidine, 1 μM Okadaic Acid) containing 1× Complete tablet (Roche Complete™ No. 11697 498 001) and 1× Protease Inhibitor cocktail (Sigma-Aldrich P8340) at a mass: volume ratio of 75 mg/ml buffer. Tissues are homogenized in a Fast Prep FP120 homogenizer (Thermo Scientific, Rockford, Ill.) at a speed of 6.0 for 30 seconds at 4° C., followed by 15 minute incubation on ice. This is repeated for a total of 2-3 cycles until homogenization is complete. Lysates are spun in a 4° C. eppendorf centrifuge at 30,000 rpm for 15 minutes to remove debris. 400 μl of supernatant is removed and transferred to a new eppendorf tube and subjected to a freeze/thaw cycle. Samples are re-spun in a 4° C. eppendorf centrifuge at 30,000 rpm for 30 minutes and 120 μl of supernatant is collected for analysis. Total protein concentration is determined using Pierce BCA Protein Assay Kit™ (Thermo Scientific, Rockford, Ill.) using a Thermomax™ plate reader (Molecular Devices, Sunnyvale, Calif.). N1ICD levels are determined using a custom N1ICD ELISA. Analyte is captured with a cleaved Notch1 (Val1744)-specific custom rabbit monoclonal antibody and detected with a C-terminal Notch1 SULFO-TAG™ (Meso Scale Discovery, Gaithersburg, Md.) polyclonal sheep antibody (R&D Systems, Minneapolis, Minn.). Lysates are diluted to 2 μg/μl in ice-cold ELISA tris lysis buffer (R6OTX) (Meso Scale Discovery, Gaithersburg, Md.) containing 1× Complete tablet (Roche Complete™ mini No. 11 836 153 001) and 1× Protease Inhibitor cocktail (Sigma-Aldrich P8340), and 25 μl is added to the ELISA plate. Incubation of 50 μg protein lysate is done at RT for one hour each to capture analyte and with detection antibody. Plates are read on a Sector Imager 6000™ (Meso Scale Discovery, Gaithersburg, Md.). Background subtracted N1ICD is normalized to total protein and presented as % inhibition relative to the vehicle-treated group. N1ICD % inhibition and statistical significance (p value) as measured by Dunett's method in tumors harvested 4 hours after last dose for Compound 1, Isomer 2 or Compound 2, Isomer 2 is analyzed essentially as described above and summarized in Table 1.

[1] = test system: outer hair cells in organ of Corti explants; assay: Organ of Corti explant assay, immuno-staining and count of outer hair cells; format: cell-based, mice; details: explants cultured four days at 1 μM; relative to negative control-treated samples
Experimental: The bulla and surrounding tissue from the petrous portion of the temporal bone are removed from 1 to 4 day-old postnatal mice (transgenic strain: Atoh1-driven nGFP; Lumpkin E A, et al., Gene Expr Patterns, 2003, (36):389-95) of both sexes. Organs of Corti are dissected in Hanks solution, the spiral ligament is removed and the explants are placed on cover slips coated with poly-L-ornithine (0.01%, Sigma) and laminin ([…], Becton Dickinson) to obtain a preparation with a flat cochlear surface. Each cochlear explant is then placed in a single well of a 24 well plate (Falcon) and cultured in DMEM (Invitrogen) with 5% fetal bovine serum, 5% horse serum, and penicillin-streptomycin (LifeTechnologies). Experimental compounds are added with medium on Day 0 and replaced every 2-3 days. All cultures are maintained in a 5% CO2 humidified incubator at 37° C.
Following the explant culture, tissues are fixed in the 24 well plate with 200 μl Cytofix/Cytoperm (BD) for 30 min, rinsed with PBS containing TritonX100 (PBST), and stained with 200 μl of primary antibody solution, consisting of 4% normal donkey serum in PBST with goat anti-GFP (1:2500; AbCAM, ab5450) and rabbit anti-myosinVIIa (1:1000; Proteus Bioscience #25-6790) for 1 hour. […] Blinded cell counts are measured in five separate experiments. […]

[2] = oral 10 mg/kg, 4 hours following treatment

SMILES | % N1ICD inhibition (Ave ± SD; n = 1) (cleaved Notch1 (N1ICD); oral 0.3 mg/kg, 8 hours following treatment) [%] | % N1ICD inhibition (Ave ± SD; n = 1) (cleaved Notch1 (N1ICD); oral 1 mg/kg, 8 hours following treatment) [%] | % N1ICD inhibition (Ave ± SD; n = 1) (cleaved Notch1 (N1ICD); oral 3 mg/kg, 8 hours following treatment) [%] | % N1ICD inhibition (Ave ± SD; n = 1) (cleaved Notch1 (N1ICD); [2]) [%] | % N1ICD inhibition (Ave ± SD; n = 1) (cleaved Notch1 (N1ICD); oral 10 mg/kg, 8 hours following treatment, listed as 1, Isomer 2, 10 mg/kg) | % N1ICD inhibition (Ave ± SD; n = 1) (cleaved Notch1 (N1ICD); oral 30 mg/kg, 8 hours following treatment) [%] | % N1ICD inhibition (Ave ± SD; n = 1) (cleaved Notch1 (N1ICD); oral 100 mg/kg, 8 hours following treatment) [%] | Percent Increase in hair cells [1] [%] | % N1ICD inhibition (Ave ± SD; n = 1) (cleaved Notch1 (N1ICD); oral 10 mg/kg, 8 hours following treatment) [%]
COc1ccc2c(c1)N1CCC(C)(C)C1=CC(=O)C2NC(=O)[C@H](C)NC(=O)CCC(F)(F)F (single isomer, unassigned) [Compound 1, Isomer 2] | −7 ± 26 | 6 ± 15 | 11 ± 13 | 70 ± 12 | 52 ± 31% and 65 ± 11% | 87 ± 3 | 92 ± 3 | 14.15 ± 1.9 | 
C[C@H](NC(=O)CCC(F)(F)F)C(=O)NC1C(=O)C=C2N(CCC2(C)C)c2ncccc21 (single isomer, unassigned) [Compound 2, Isomer 2] |  |  |  | 65 ± 11 |  |  |  | 17.26 ± 1.2 | 15 ± 14

From patent US10450317B2, “Notch pathway signaling inhibitor compounds” (Eli Lilly and Company, priority 2015, dated 2019)
